According to patent US20260176320A1, “MODULATORS OF G-PROTEIN COUPLED RECEPTORS” (priority 2018, published 2026):
Where two headings read alike, the source gives them in different places.

Experiments:
GLP-1R = GLP-1R (Homo sapiens, UniProt P43220); assay: HitHunter cAMP assay (GLP-1R); assay type: cell-based; conditions: cAMP; for Emax: read-out: (Emax) GLP-1R; for EC50: read-out: EC50 GLP-1R/nM
How it was run: (§1)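 Agonist stimulation lasts 30 min at room temperature on 10,000 cells per well, with phosphodiesterase blocked by 625 μM IBMX. Accumulated cAMP is quantified by competitive antibody luminescence after overnight development.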

GIP-R = biological target: T1, GIP-R (Homo sapiens, UniProt P48546); assay: HitHunter cAMP assay (GIP-R); assay type: cell-based; conditions: cAMP; for Emax: read-out: (Emax) GIP-R; for EC50: read-out: EC50 GIP-R/nM
T1 sequence (P48546 22-466): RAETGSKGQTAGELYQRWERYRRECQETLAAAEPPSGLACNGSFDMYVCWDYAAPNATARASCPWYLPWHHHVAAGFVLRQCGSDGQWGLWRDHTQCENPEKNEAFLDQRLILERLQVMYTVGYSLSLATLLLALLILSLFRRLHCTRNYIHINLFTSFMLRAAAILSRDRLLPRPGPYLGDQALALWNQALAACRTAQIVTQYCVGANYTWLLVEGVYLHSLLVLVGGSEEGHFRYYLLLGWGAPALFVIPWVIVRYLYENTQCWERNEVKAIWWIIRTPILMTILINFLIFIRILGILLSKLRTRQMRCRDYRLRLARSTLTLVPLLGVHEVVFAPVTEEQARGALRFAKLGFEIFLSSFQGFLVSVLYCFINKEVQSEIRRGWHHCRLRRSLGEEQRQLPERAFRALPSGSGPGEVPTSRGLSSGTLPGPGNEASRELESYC
How it was run: as §1

GLP-1R, sequence (P43220 24-463): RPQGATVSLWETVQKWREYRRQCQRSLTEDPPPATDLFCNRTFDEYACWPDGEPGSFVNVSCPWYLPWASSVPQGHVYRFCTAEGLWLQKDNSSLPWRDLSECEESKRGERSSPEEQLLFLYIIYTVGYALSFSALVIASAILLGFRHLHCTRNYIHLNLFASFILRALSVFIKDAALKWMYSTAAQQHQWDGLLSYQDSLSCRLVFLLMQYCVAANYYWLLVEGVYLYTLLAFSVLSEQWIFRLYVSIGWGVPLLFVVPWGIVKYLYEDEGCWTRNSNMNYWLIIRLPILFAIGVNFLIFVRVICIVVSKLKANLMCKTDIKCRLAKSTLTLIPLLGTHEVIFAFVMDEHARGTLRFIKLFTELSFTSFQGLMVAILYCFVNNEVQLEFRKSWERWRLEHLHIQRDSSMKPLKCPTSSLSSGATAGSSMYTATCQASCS

Row | SMILES | Emax (GLP-1R; Table 3) [%] | Emax (GLP-1R; Table 3A) [%] | Emax (GIP-R; Table 3) [%] | Emax (GIP-R; Table 3A) [%] | EC50 (GLP-1R; Table 3) [nM] | EC50 (GLP-1R; Table 3A) [nM] | EC50 (GIP-R; Table 3) [nM] | EC50 (GIP-R; Table 3A) [nM]
1 | CCCCCCCCCCCCCCCC(=O)N[C@@H](CCC(=O)NCCCC[C@H](NC(=O)[C@H](CO)NC(=O)[C@@H]1CCCN1C(=O)[C@@H]1CCCN1C(=O)[C@@H]1CCCN1C(=O)[C@H](C)NC(=O)CNC(=O)[C@H](CO)NC(=O)[C@H](CO)NC(=O)[C@@H]1CCCN1C(=O)CNC(=O)CNC(=O)[C@H](C)NC(=O)[C@H](CC(C)C)NC(=O)[C@H](CC(C)C)NC(=O)[C@H](Cc1c[nH]c2ccccc12)NC(=O)[C@H](CC(N)=O)NC(=O)[C@@H](NC(=O)[C@H](Cc1ccccc1)NC(=O)[C@H](CCC(=O)O)NC(=O)C(C)(C)NC(=O)[C@H](C)NC(=O)[C@H](C)NC(=O)[C@H](CCC(N)=O)NC(=O)[C@H](CCCCN)NC(=O)[C@H](CC(=O)O)NC(=O)[C@H](CC(C)C)NC(=O)[C@H](Cc1ccc(O)cc1)NC(=O)[C@@H](NC(=O)[C@H](CO)NC(=O)[C@H](Cc1ccc(O)cc1)NC(=O)[C@H](CC(=O)O)NC(=O)[C@H](CO)NC(=O)[C@@H](NC(=O)[C@H](Cc1ccccc1)NC(=O)[C@@H](NC(=O)CNC(=O)[C@H](CCC(=O)O)NC(=O)CSCC(=O)NCCN1C(=O)CC[C@H]1C)[C@@H](C)O)[C@@H](C)O)[C@@H](C)CC)C(C)C)C(N)=O)C(=O)O (single isomer, unassigned) [Compound 74] | 92 | 92 | 47 | 47 |  |  |  | 
2 | CCCCCCCCCCCCCCCC(=O)N[C@@H](CCC(=O)NCCCC[C@H](NC(=O)[C@H](CO)NC(=O)[C@@H]1CCCN1C(=O)[C@@H]1CCCN1C(=O)[C@@H]1CCCN1C(=O)[C@H](C)NC(=O)CNC(=O)[C@H](CO)NC(=O)[C@H](CO)NC(=O)[C@@H]1CCCN1C(=O)CNC(=O)CNC(=O)[C@H](C)NC(=O)[C@H](CC(C)C)NC(=O)[C@H](CC(C)C)NC(=O)[C@H](Cc1c[nH]c2ccccc12)NC(=O)[C@H](CC(N)=O)NC(=O)[C@@H](NC(=O)[C@H](Cc1ccccc1)NC(=O)[C@H](CCC(=O)O)NC(=O)C(C)(C)NC(=O)[C@H](C)NC(=O)[C@H](C)NC(=O)[C@H](CCC(N)=O)NC(=O)[C@H](CCCCN)NC(=O)[C@H](CC(=O)O)NC(=O)[C@H](CC(C)C)NC(=O)[C@H](Cc1ccc(O)cc1)NC(=O)[C@@H](NC(=O)[C@H](CO)NC(=O)[C@H](Cc1ccc(O)cc1)NC(=O)[C@H](CC(=O)O)NC(=O)[C@H](CO)NC(=O)[C@@H](NC(=O)[C@H](Cc1ccccc1)NC(=O)[C@@H](NC(=O)CNC(=O)[C@H](CCC(=O)O)NC(=O)CSCC(=O)NCCN1C(=O)NC(C)(C)C1=O)[C@@H](C)O)[C@@H](C)O)[C@@H](C)CC)C(C)C)C(N)=O)C(=O)O [Compound 87] | 89 | 89 | 62 | 62 | 1 to 10 | 1 to 10 | 1 to 10 | 1 to 10
3 | CCCCCCCCCCCCCCCC(=O)N[C@@H](CCC(=O)NCCCC[C@H](NC(=O)[C@H](CO)NC(=O)[C@@H]1CCCN1C(=O)[C@@H]1CCCN1C(=O)[C@@H]1CCCN1C(=O)[C@H](C)NC(=O)CNC(=O)[C@H](CO)NC(=O)[C@H](CO)NC(=O)[C@@H]1CCCN1C(=O)CNC(=O)CNC(=O)[C@H](C)NC(=O)[C@H](CC(C)C)NC(=O)[C@H](CC(C)C)NC(=O)[C@H](Cc1c[nH]c2ccccc12)NC(=O)[C@H](CC(N)=O)NC(=O)[C@@H](NC(=O)[C@H](Cc1ccccc1)NC(=O)[C@H](CCC(=O)O)NC(=O)C(C)(C)NC(=O)[C@H](C)NC(=O)[C@H](C)NC(=O)[C@H](CCC(N)=O)NC(=O)[C@H](CCCCN)NC(=O)[C@H](CC(=O)O)NC(=O)[C@](C)(CC(C)C)NC(=O)[C@H](Cc1ccc(O)cc1)NC(=O)[C@@H](NC(=O)[C@H](CO)NC(=O)[C@H](Cc1ccc(O)cc1)NC(=O)[C@H](CC(=O)O)NC(=O)[C@H](CO)NC(=O)[C@@H](NC(=O)[C@H](Cc1ccccc1)NC(=O)[C@@H](NC(=O)CNC(=O)[C@H](CCC(=O)O)NC(=O)CSCC(=O)NCCN1C(=O)CSC1=O)[C@@H](C)O)[C@@H](C)O)[C@@H](C)CC)C(C)C)C(N)=O)C(=O)O [Compound 70] | 102 | 102 | 86 | 86 | 0.1 to 1 | 0.1 to 1 | 1 to 10 | 1 to 10
